From patent publication US6992079B2, “Substituted 11-phenyl-dibenzazepine compounds useful for the treatment or prevention of diseases characterized by abnormal cell proliferation” (President Fellows of Harvard College, priority 1997, dated 2006)
Read-outs that look alike come from different tables or passages of the source.

How the values were obtained:
[1] = tested on: H460 large cell lung carcinoma; assay: Mouse xenograft tumor growth; type: in vivo, CD-1 nude mice
CCRF-CEM = assay: In-Vitro Testing SRB panel: Leukemia; type: cell-based
K-562 = assay: In-Vitro Testing SRB panel: Leukemia; type: cell-based
RPMI-8226 = assay: In-Vitro Testing SRB panel: Leukemia; type: cell-based; details: RPMI-8226
ROP-92 = type: cell-based
NCI-H23 = type: cell-based; details: NCI-H23
NCI-H522 = type: cell-based; details: NCI-H522
SNB-75 = assay: In-Vitro Testing SRB panel: CNS Cancer; type: cell-based; details: SNB-75
MALM-3M = assay: In-Vitro Testing SRB panel: Melanoma; type: cell-based; details: MALM-3M
SK-MEL-5 = assay: In-Vitro Testing SRB panel: Melanoma; type: cell-based; details: SK-MEL-5
IGROV1 = assay: In-Vitro Testing SRB panel: Ovarian Cancer; type: cell-based
OVCAR-4 = assay: In-Vitro Testing SRB panel: Ovarian Cancer; type: cell-based; details: OVCAR-4
OVCAR-5 = assay: In-Vitro Testing SRB panel: Ovarian Cancer; type: cell-based; details: OVCAR-5
ACHN = assay: In-Vitro Testing SRB panel: Renal Cancer; type: cell-based
SN12C = assay: In-Vitro Testing SRB panel: Renal Cancer; type: cell-based
MDA-MB-231/ATCC = assay: In-Vitro Testing SRB panel: Breast Cancer; type: cell-based; details: MDA-MB-231/ATCC
BT-549 = assay: In-Vitro Testing SRB panel: Breast Cancer; type: cell-based; details: BT-549
T-47D = assay: In-Vitro Testing SRB panel: Breast Cancer; type: cell-based
[2] = Homo sapiens, read-out: LC50 (the source's name)

## COc1cccc2c1C(c1ccccc1Cl)c1cc(Cl)ccc1N(C(=O)c1ccc([N+](=O)[O-])cc1)C2 (stereo not drawn) [Compound 31]
[1]
  tumor growth: showed inhibition of tumor growth
CCRF-CEM
  TGI: >1.00E−04 Molar
CCRF-CEM; Homo sapiens
  GI50: 1.53 µM
CCRF-CEM; [2]
  CC50: > 100 µM
CCRF-CEM; log10 conc -4 Molar
  Percent Growth: 2%
CCRF-CEM; log10 conc -5 Molar
  Percent Growth: 21%
CCRF-CEM; log10 conc -6 Molar
  Percent Growth: 56%
CCRF-CEM; log10 conc -7 Molar
  Percent Growth: 94%
CCRF-CEM; log10 conc -8 Molar
  Percent Growth: 111%
K-562; Homo sapiens, K562
  GI50: 0.506 µM
K-562; Homo sapiens, K562, K-562, read-out: LC50 (the source's name)
  CC50: > 100 µM
K-562; K-562
  TGI: >1.00E−04 Molar
K-562; K-562, log10 conc -4 Molar
  Percent Growth: 15%
K-562; K-562, log10 conc -5 Molar
  Percent Growth: 24%
K-562; K-562, log10 conc -6 Molar
  Percent Growth: 39%
K-562; K-562, log10 conc -7 Molar
  Percent Growth: 77%
K-562; K-562, log10 conc -8 Molar
  Percent Growth: 93%
RPMI-8226; Homo sapiens
  GI50: 0.327 µM
RPMI-8226; [2]
  CC50: > 100 µM
RPMI-8226
  TGI: >1.00E−04 Molar
RPMI-8226; log10 conc -4 Molar
  Percent Growth: 21%
RPMI-8226; log10 conc -5 Molar
  Percent Growth: 23%
RPMI-8226; log10 conc -6 Molar
  Percent Growth: 36%
RPMI-8226; log10 conc -7 Molar
  Percent Growth: 65%
RPMI-8226; log10 conc -8 Molar
  Percent Growth: 82%
ROP-92; Homo sapiens
  GI50: 5.53 µM
ROP-92; Homo sapiens, ROP-92, read-out: LC50 (the source's name)
  CC50: > 100 µM
ROP-92; ROP-92
  TGI: >1.00E−04 Molar
ROP-92; ROP-92, log10 conc -4 Molar
  Percent Growth: 27%
ROP-92; ROP-92, log10 conc -5 Molar
  Percent Growth: 42%
ROP-92; ROP-92, log10 conc -6 Molar
  Percent Growth: 74%
ROP-92; ROP-92, log10 conc -7 Molar
  Percent Growth: 88%
ROP-92; ROP-92, log10 conc -8 Molar
  Percent Growth: 89%
NCI-H23; Homo sapiens
  GI50: 2.65 µM
NCI-H23; [2]
  CC50: > 100 µM
NCI-H23
  TGI: >1.00E−04 Molar
NCI-H23; log10 conc -4 Molar
  Percent Growth: 19%
NCI-H23; log10 conc -5 Molar
  Percent Growth: 33%
NCI-H23; log10 conc -6 Molar
  Percent Growth: 62%
NCI-H23; log10 conc -7 Molar
  Percent Growth: 92%
NCI-H23; log10 conc -8 Molar
  Percent Growth: 96%
NCI-H522; Homo sapiens
  GI50: 7.48 µM
NCI-H522; [2]
  CC50: > 100 µM
NCI-H522
  TGI: >1.00E−04 Molar
NCI-H522; log10 conc -4 Molar
  Percent Growth: 36%
NCI-H522; log10 conc -5 Molar
  Percent Growth: 44%
NCI-H522; log10 conc -6 Molar
  Percent Growth: 89%
NCI-H522; log10 conc -7 Molar
  Percent Growth: 88%
NCI-H522; log10 conc -8 Molar
  Percent Growth: 99%
SNB-75; Homo sapiens
  GI50: 5.9 µM
SNB-75; [2]
  CC50: > 100 µM
SNB-75
  TGI: 6.40E−05 Molar
SNB-75; log10 conc -4 Molar
  Percent Growth: −11%
SNB-75; log10 conc -5 Molar
  Percent Growth: 44%
SNB-75; log10 conc -6 Molar
  Percent Growth: 82%
SNB-75; log10 conc -7 Molar
  Percent Growth: 100%
SNB-75; log10 conc -8 Molar
  Percent Growth: 103%
MALM-3M; [2]
  CC50: > 100 µM
MALM-3M
  TGI: >1.00E−04 Molar
MALM-3M; log10 conc -4 Molar
  Percent Growth: 97%
MALM-3M; log10 conc -5 Molar
  Percent Growth: 96%
MALM-3M; log10 conc -6 Molar
  Percent Growth: 42%
MALM-3M; log10 conc -7 Molar
  Percent Growth: 123%
MALM-3M; log10 conc -8 Molar
  Percent Growth: 117%
SK-MEL-5; Homo sapiens
  GI50: 0.597 µM
SK-MEL-5; [2]
  CC50: > 100 µM
SK-MEL-5
  TGI: >1.00E−04 Molar
SK-MEL-5; log10 conc -4 Molar
  Percent Growth: 17%
SK-MEL-5; log10 conc -5 Molar
  Percent Growth: 27%
SK-MEL-5; log10 conc -6 Molar
  Percent Growth: 41%
SK-MEL-5; log10 conc -7 Molar
  Percent Growth: 81%
SK-MEL-5; log10 conc -8 Molar
  Percent Growth: 94%
IGROV1; Homo sapiens, IGROV-1
  GI50: 2.13 µM
IGROV1; Homo sapiens, IGROV-1, IGROV1, read-out: LC50 (the source's name)
  CC50: > 100 µM
IGROV1; IGROV1
  TGI: >1.00E−04 Molar
IGROV1; IGROV1, log10 conc -4 Molar
  Percent Growth: 29%
IGROV1; IGROV1, log10 conc -5 Molar
  Percent Growth: 35%
IGROV1; IGROV1, log10 conc -6 Molar
  Percent Growth: 57%
IGROV1; IGROV1, log10 conc -7 Molar
  Percent Growth: 80%
IGROV1; IGROV1, log10 conc -8 Molar
  Percent Growth: 94%
OVCAR-4; Homo sapiens
  GI50: 1.83 µM
OVCAR-4; [2]
  CC50: > 100 µM
OVCAR-4
  TGI: 8.34E−05 Molar
OVCAR-4; log10 conc -4 Molar
  Percent Growth: −1%
OVCAR-4; log10 conc -5 Molar
  Percent Growth: 16%
OVCAR-4; log10 conc -6 Molar
  Percent Growth: 62%
OVCAR-4; log10 conc -7 Molar
  Percent Growth: 83%
OVCAR-4; log10 conc -8 Molar
  Percent Growth: 91%
OVCAR-5; Homo sapiens
  GI50: 91.7 µM
OVCAR-5; [2]
  CC50: > 100 µM
OVCAR-5
  TGI: >1.00E−04 Molar
OVCAR-5; log10 conc -4 Molar
  Percent Growth: 49%
OVCAR-5; log10 conc -5 Molar
  Percent Growth: 70%
OVCAR-5; log10 conc -6 Molar
  Percent Growth: 82%
OVCAR-5; log10 conc -7 Molar
  Percent Growth: 102%
OVCAR-5; log10 conc -8 Molar
  Percent Growth: 101%
ACHN
  TGI: >1.00E−04 Molar
ACHN; Homo sapiens
  GI50: 0.803 µM
ACHN; [2]
  CC50: > 100 µM
ACHN; log10 conc -4 Molar
  Percent Growth: 8%
ACHN; log10 conc -5 Molar
  Percent Growth: 26%
ACHN; log10 conc -6 Molar
  Percent Growth: 45%
ACHN; log10 conc -7 Molar
  Percent Growth: 95%
ACHN; log10 conc -8 Molar
  Percent Growth: 92%
SN12C
  TGI: >1.00E−04 Molar
SN12C; Homo sapiens
  GI50: 6.93 µM
SN12C; [2]
  CC50: > 100 µM
SN12C; log10 conc -4 Molar
  Percent Growth: 30%
SN12C; log10 conc -5 Molar
  Percent Growth: 43%
SN12C; log10 conc -6 Molar
  Percent Growth: 85%
SN12C; log10 conc -7 Molar
  Percent Growth: 101%
SN12C; log10 conc -8 Molar
  Percent Growth: 94%
MDA-MB-231/ATCC; [2]
  CC50: > 100 µM
MDA-MB-231/ATCC
  TGI: >1.00E−04 Molar
MDA-MB-231/ATCC; log10 conc -4 Molar
  Percent Growth: 56%
MDA-MB-231/ATCC; log10 conc -5 Molar
  Percent Growth: 49%
MDA-MB-231/ATCC; log10 conc -6 Molar
  Percent Growth: 38%
MDA-MB-231/ATCC; log10 conc -7 Molar
  Percent Growth: 50%
MDA-MB-231/ATCC; log10 conc -8 Molar
  Percent Growth: 90%
BT-549
  TGI: >1.00E−04 Molar
BT-549; log10 conc -4 Molar
  Percent Growth: 11%
BT-549; log10 conc -5 Molar
  Percent Growth: 43%
BT-549; log10 conc -6 Molar
  Percent Growth: 59%
BT-549; log10 conc -7 Molar
  Percent Growth: 94%
BT-549; log10 conc -8 Molar
  Percent Growth: 92%
BT-549; Homo sapiens
  GI50: 3.83 µM
BT-549; [2]
  CC50: > 100 µM
T-47D; Homo sapiens, T47D
  GI50: 2.97 µM
T-47D; Homo sapiens, T47D, T-47D, read-out: LC50 (the source's name)
  CC50: > 100 µM
T-47D; T-47D
  TGI: >1.00E−04 Molar
T-47D; T-47D, log10 conc -4 Molar
  Percent Growth: 27%
T-47D; T-47D, log10 conc -5 Molar
  Percent Growth: 34%
T-47D; T-47D, log10 conc -6 Molar
  Percent Growth: 65%
T-47D; T-47D, log10 conc -7 Molar
  Percent Growth: 90%
T-47D; T-47D, log10 conc -8 Molar
  Percent Growth: 92%
